# Measured values as given in US8173604B2, “Inhibition of Skp2-cyclin a interaction” (Albert Einstein College of Medicine of Yeshiva University, priority 2006, dated 2012).
# Like-named read-outs stand apart in the source and are kept apart here. Ends that are not written are not given here.
# Tests used:
# [1] = target: T1, cyclin A/Cdk2 (Homo sapiens, UniProt P20248+P24941); test: IP-kinase assay with myc-cyclin A/Cdk2 transfected 293T cell extract; assay type: biochemical; details: increasing amounts of peptide
# T1 construct: made in house; host or cells: insect cells (baculovirus)
# Protocol: In panel A, an IP-kinase assay was performed with myc-cyclin A/Cdk2 transfected 293T cell extract in the presence of increasing amounts of RxL or 4060 peptides. Phosphorylation of GST-Skp2N is visible in this gel. […] As indicated, increasing amounts of the 4060 or 4060AAAA peptides were included in the reactions. Phosphorylation of Rb-C was quantified and plotted as shown.
# Cyclin A/Cdk2 kinase assays were performed as described previously (Ji et al., 2004). Both immuno-purified myc-cyclin A/Cdk2 on beads and GST-purified and eluted GST-cyclin A/Cdk2 (baculovirus vectors for GST-cyclin A and Cdk2 were provided by Brian Dynlacht) were used. The amounts of purified proteins were determined by comparing them with known amounts of standard proteins in Coomassie blue stained gels. Phosphorylation of GST-Rb-C was quantified with the ImageQuant software. The Ki of various proteins was determined by non-linear least squares analysis. […] Actual amounts of proteins in 7.5×10^4 HeLa cells were then determined (for example, the amounts of p27, Skp2, and cyclin A in 7.5×10^4 HeLa cells were determined to be about 0.1, 0.2, and 0.1 pmoles, respectively, at 14 hours post-replating; and about 0.01, 0.1, and 1.0 pmoles, respectively, at 19 hours post-replating). […]
# [2] = target: T2, p27-cyclin A interaction (Homo sapiens, UniProt P20248); test: GST pull-down, blocking of p27-cyclin A interaction; assay type: binding; details: GST-p27, myc-cyclin A/Cdk2 transfected 293T cell extracts
# T2 construct: expressed in transfected cells; host or cells: 293T (cyclin A/Cdk2)
# Protocol: (§1) GST pull down, p27 ubiquitylation assay, and cyclin A kinase assay. GST fusion proteins were purified on GSH-beads (Amersham), which were then incubated with transfected cell extracts for 1 hour in 4° C. with rocking. The beads were washed three times with lysis buffer (25 mM Hepes pH 7.6, 100 mM KCl, 0.1 mM EDTA, 10 mM MgCl2, 0.1% NP-40, 10% glycerol, 1 mM DTT) before analysis by SDS-PAGE and Western blotting.
# (§2) Skp2-cyclin A interaction and p27-cyclin A interaction can be blocked by distinct peptides. An important aspect of the RxL-1-IP interaction is that it can be blocked by a short RxL peptide (Adams et al., 1996). If the Skp2-cyclin A/Cdk2 interaction and the p27-cyclin A/Cdk2 interaction are mediated by different sequences on both sides of the interaction, as shown above, it can be predicted that the RxL peptide should not block Skp2-cyclin A interaction. […] Peptide concentrations required for their respective blocking activities were similar for RxL and 4060 peptides.
# Skp2 competes with p27/p21, but not E2F1, for binding to cyclin A. Whether the apparently distinct Skp2-cyclin A interaction and p27-cyclin A interaction are competitive against each other was next evaluated. […] Whether the competition between Skp2 and p27/p21 for cyclin A binding could be observed in vivo with endogenous proteins under physiological conditions was next determined. […]
# [3] = target: T3, Skp2-cyclin A interaction (Homo sapiens, UniProt P20248); test: GST pull-down, blocking of Skp2-cyclin A interaction by peptides; assay type: binding; details: GST-Skp2N, myc-cyclin A/Cdk2 transfected 293T cell extracts
# T3 construct: expressed in transfected cells; host or cells: 293T (cyclin A/Cdk2)
# Protocol: as §1, §2
# [4] = system: cyclin A-associated kinase activity; test: IP-kinase assay of anti-cyclin A and anti-Cdk2 immune complexes from peptide-treated U2OS cells; assay type: cell-based, human; details: 50 μM peptide, twelve hours, compared with TAT-4060AAAA or TAT-Umt
# Protocol: (§3) FIG. 12 is photographs of western blots and kinase assays and graphs showing the effects of trans-membrane delivery of the 4060 peptide. In Panel A, U2OS cells were treated with 50 μM of indicated peptide for twelve hours. Cell extracts were prepared for immunoprecipitation and Western blot analysis as indicated. […] In Panel C, the same extracts were used in IP-kinase assays as indicated. The extent of phosphorylation was quantified and plotted.
# (§4) The loss of Skp2-cyclin A/Cdk2 interaction was not due to a reduction in levels of these proteins (FIG. 12B). Importantly, cellular p27 protein levels were not affected by the blocking peptide. […] Here, it is important to point out that although we used p27 as an inhibitor of cyclin A-associated kinase activity in purified kinase reactions with the 4060 blocking peptide shown in FIG. 11, the effects of blocking Skp2-cyclin A interaction on cyclin A-associated kinase activity in cells is unlikely to be mediated by p27 alone. There was no significant interaction between p27 and cyclin A in U2OS cells before and after treatment of TAT-4060. p27 family members p21 and p57, and the pocket proteins p107 and p130 (Adams et al., 1996) may bind and inhibit cyclin A-associated kinase activity through the RxL-HP interaction mechanism. […]
# [5] = system: U2OS cells
# Protocol: It is currently unknown how peptide concentrations in the culture media translate into intro-cellular peptide concentrations.
# Whether artificial manipulation of Skp2 protein levels in U2OS cells could change the IC50 of various peptides was also investigated.
# (§5) Cell proliferation and survival assays. For the cell proliferation assay shown in FIG. 10D, 1×10^4 cells were plated in each well of 24 well plates and allowed to grow for a course of four days in the presence of 10% FBS. Cell numbers were counted every day from triplet wells. For cell survival assays in FIGS. 13, 14 and 15, 1×10^3 cells were plated in each well of 96 well plates and allowed to adhere overnight in the presence of 10% FBS. The cells were washed once with Opti-MEM (GIBCO) followed by incubation with different concentrations of peptides in Opti-MEM for 24 hours in triplicate. MTS assay was then performed following manufacturer's protocol (Promega).
# [6] = target: T4, interaction between cellular Skp2 and cyclin A/Cdk2 (Homo sapiens, UniProt P20248); test: Coimmunoprecipitation with cyclin A from peptide-treated U2OS cells; assay type: cell-based; details: 50 μM peptide, twelve hours
# T4 construct: endogenous in cells; host or cells: U2OS
# Protocol: as §3, §4
# [7] = system: HeLa cells; test: Cell survival MTS assay, HeLa; assay type: cell-based, human; details: high levels of Skp2
# Excerpt: IC50 of the 4060 peptide positively correlates with Skp2 protein abundance in cancer cells. Skp2 is frequently overexpressed at various levels in various cancer cells. If TAT-4060 kills cancer cells by disrupting Skp2-cyclin A interaction, higher peptide concentrations should be needed to kill cancer cells with higher levels of Skp2. In comparison, since TAT-LDL is believed to kill cancer cells by blocking access of cyclin A to E2F1, there need not be a direct correlation between effective TAT-LDL concentrations and cellular Skp2 protein levels. To test this prediction, Skp2 protein levels and IC50 of both TAT-4060 and TAT-LDL was determined for the panel of four cancer cell lines.
# as §5
# [8] = system: human diploid fibroblasts WI-38; test: Cell survival MTS assay, WI-38; assay type: cell-based; details: 120 μM, 24 hours
# Protocol: In comparison, both TAT-Umt and TAT-4060 inhibited cyclin A/Cdk2 kinase activity in vitro at peptide concentrations of 100 μM (FIG. 11B). It is currently unknown how peptide concentrations in the culture media translate into intro-cellular peptide concentrations.
# as §5
# [9] = system: p27; test: Western blot of peptide-treated U2OS cell extracts; assay type: cell-based, human; details: U2OS cells, 50 μM peptide, twelve hours
# Protocol: as §3, §4
# [10] = target: T1, cyclin A/Cdk2; test: In vitro cyclin A/Cdk2 kinase assay with purified proteins (GST-Rb-C substrate); assay type: biochemical
# Protocol: Cyclin A/Cdk2 kinase assays were performed as described previously (Ji et al., 2004). Both immuno-purified myc-cyclin A/Cdk2 on beads and GST-purified and eluted GST-cyclin A/Cdk2 (baculovirus vectors for GST-cyclin A and Cdk2 were provided by Brian Dynlacht) were used. The amounts of purified proteins were determined by comparing them with known amounts of standard proteins in Coomassie blue stained gels. Phosphorylation of GST-Rb-C was quantified with the ImageQuant software. The Ki of various proteins was determined by non-linear least squares analysis. To determine the amounts of various proteins in synchronized HeLa cells, extracts representing 7.5×10^4 HeLa cells were resolved with known amounts of purified proteins and compared in the same Western blots. Actual amounts of proteins in 7.5×10^4 HeLa cells were then determined (for example, the amounts of p27, Skp2, and cyclin A in 7.5×10^4 HeLa cells were determined to be about 0.1, 0.2, and 0.1 pmoles, respectively, at 14 hours post-replating; and about 0.01, 0.1, and 1.0 pmoles, respectively, at 19 hours post-replating).
# For kinase reactions, insect cell-produced and purified GST-cyclin A/Cdk2 was used at a concentration of ˜3 nM, which was the lowest concentration that yielded readily detectible phosphorylation of GST-Rb-C here. Purified p27, GST-Skp2, and Skp2N were titrated into the kinase reaction over a wide range of concentrations (FIGS. 7A, B, and C). Phosphorylation of Rb-C was measured and plotted, and the Ki of these various proteins were determined by non-linear least squares analysis (FIG. 7F).
# Since Skp2 competes with p27 for binding to cyclin A and Skp2's Ki is about 100-fold higher than p27's Ki, it can be reasoned that, at concentrations well below its Ki, Skp2 might be able to protect cyclin A/Cdk2 from inhibition by p27. To test this hypothesis, the same cyclin A/Cdk2 kinase assay was carried out to determine the inhibitory activity of p27 in the presence of 80 nM of Skp2N.
# It was then determined whether the 4060 peptide could prevent Skp2N from protecting cyclin A/Cdk2 from inhibition by p27. […] When 80 nM of Skp2N was included, 5 nM of p27 lost its ability to inhibit the kinase activity (lane 3). […] These findings indicate that the Skp2-cyclin A interaction is also a potential target to inhibit cyclin A kinase activity in tumor cells, particularly those overexpressing Skp2.
# To test this prediction, various peptides were added to an in vitro kinase reaction with purified cyclin A/Cdk2 (˜3 nM concentration). An E2F1-derived RxL peptide, LDL peptide, was used for comparison since it could inhibit cyclin A/Cdk2 kinase activity (Sun et al., 2006, and see next section). Since a TAT sequence was later added to these peptides for trans-membrane delivery (see next section), two versions of each peptide (without TAT and with TAT) was used in these kinase assays. These two versions of peptides yielded identical results and therefore only presented results with one version of the peptides.
# The effects of the 4060 peptide on cyclin A/Cdk2 kinase activity in the presence of Skp2 and p27 were then determined.
Effect of peptide itself on cyclin A/Cdk2 kinase activity towards Rb-C [1],Blocking of p27-cyclin A interaction [2],Blocking of Skp2N-cyclin A interaction [3],Sequence,Kinase activity in anti-cyclin A and anti-Cdk2 immune complexes [4],Concentration of peptide to achieve 40% killing ([5]; U2OS with artificial decrease in Skp2 protein levels (knockdown)),Cell killing effectiveness ([5]; U2OS with artificial increase of Skp2 protein levels (overexpression)),"Cell killing effect of single peptide ([5]; U2OS, 1 or 2 μM, 24 hours)","Concentration of peptide to achieve 40% killing ([5]; U2OS, Skp2 levels not manipulated)","Cell killing effect ([5]; U2OS, twenty four hours after addition of peptides)","IC50 ([5]; read-out: IC50 of cell killing, U2OS, 24 hours, MTS)",Dissociation of interaction between cellular Skp2 and cyclin A/Cdk2 [6],Peptide concentration required for cell killing [7],WI-38 cells killed [8],Cellular p27 protein levels [9],Inhibitory effect on cyclin A/Cdk2 kinase activity ([10]; 1 μM and 10 μM peptide),Inhibition of cyclin A/Cdk2 kinase activity ([10]; 100 μM peptide)
inhibited the kinase activity,blocking the p27-cyclin A interaction,but not the Skp2N-cyclin A interaction,SACRNLFG (peptide RxL) [reference compound],,,,,,,,,,,,,
,,,YGRKKRRQRRRGKTSELLSGMGVSALEKEE [TAT-4060],clear reduction,20 µM,nearly as ineffective as TAT-Umt,neither TAT-LDL nor TAT-4060 exhibited any cell killing effects,40 µM,induced significant cell death,35 µM,resulted in dissociation,very high concentrations,no effect,not affected,did not show inhibitory effect,significant inhibition
